Reference: patent US20100273752A1, “MEQUITAZINE FOR TREATING OR PREVENTING PATHOLOGIES INVOLVING HISTAMINE H4 RECEPTORS” (PIERRE FABRE MEDICAMENT, priority 2007, published 2010)
Several values for one entry are separate records, joined by “and”; a condition that tells them apart may be missing. Equal values may be shown once.

Experiments:
[1] = system: bronchoconstriction induced by acetylcholine; test: Inhibition of acetylcholine-induced bronchoconstriction in anaesthetized ventilated guinea pigs; type: in vivo, guinea pig
Description: Guinea pigs are anaesthetized and artificially ventilated. The air penetrating the lungs is measured by means of a sensor. Each inspiration is thus quantified. Bronchoconstriction is then induced by intravenous injection of acetylcholine. The effect of acetylcholine is a direct and immediate modification of bronchial tonus. The bronchoconstriction effects of acetylcholine are evaluated in mm at the peak of the effects.

[2] = system: plantar edema induced by histamine; test: Plantar edema induced by histamine in the mouse, oral administration; type: in vivo; conditions: for Inhibition of inflammation (%): 3 mg/kg oral; for Anti-inflammatory activity, range over pretreatment times: oral, 120, 90, 60 and 30 minutes beforehand
Description: The goal of this experiment was to detect possible anti-inflammatory activity of […], […] and […] with respect to plantar edema induced by histamine in the mouse. The principle of the test is inspired by the publication of Kreutner et al. (2000). All groups were composed of 10 animals. The products were administered by oral route (25 ml/kg) in pretreatment, at various times: 120, 90, 60 and 30 minutes before the inflammation-producing agent. Sixty minutes later, an injection (10 μl) in the paw was given under isoflurane anesthesia. The right paw received 13 μg of histamine dihydrochloride and the left paw physiological saline solution (histamine vehicle). Thirty minutes after the injections, the animals were euthanized by cervical dislocation. The paws were sampled and weighed. The edemas were quantified by the difference between the weights of the paws (weight of right paw-weight of left paw).

[3] = system: histamine-induced bronchoconstriction; test: Histamine-induced bronchoconstriction, Konzett model, intravenous administration; type: in vivo, guinea pig
Description: The goal of these experiments is to evaluate the activity of the three compounds […] and […] with respect to histamine-induced bronchoconstriction in the Konzett (1940) guinea pig model. Previously we saw that the three compounds exerted antihistamine activity with respect to H4 receptor in vitro, while on the other hand in vivo only […] and […] appeared anti-inflammatory when the inflammation is generated by histamine. It seems that […] loses its activity when it is administered by oral route. With an aim of analyzing the activity by intravenous route of the three products, the following test was conducted. The animals are ventilated, by means of a constant pressure respiratory pump, by a volume of air in excess. […] The variations observed represent changes in bronchial tonus. Histamine-induced bronchoconstriction causes an increase in the excess volume measured by the sensor. The various compounds are administered by way of the jugular vein, which is catheterized beforehand. Histamine stimulation is then carried out by intravenous route at a dose of 7 μg/kg.

H4 receptor = H4 receptor (Homo sapiens, UniProt Q9H3N8); test: G protein activation test ([35S] GTP binding); conditions: for Effect on G protein activation induced by histamine: 0.1 μM histamine, FIG. 1a; for Functional character at H4 receptor (basal activity in the absence of agonist): FIG. 1b
Sequence of H4 receptor (Q9H3N8 whole entry): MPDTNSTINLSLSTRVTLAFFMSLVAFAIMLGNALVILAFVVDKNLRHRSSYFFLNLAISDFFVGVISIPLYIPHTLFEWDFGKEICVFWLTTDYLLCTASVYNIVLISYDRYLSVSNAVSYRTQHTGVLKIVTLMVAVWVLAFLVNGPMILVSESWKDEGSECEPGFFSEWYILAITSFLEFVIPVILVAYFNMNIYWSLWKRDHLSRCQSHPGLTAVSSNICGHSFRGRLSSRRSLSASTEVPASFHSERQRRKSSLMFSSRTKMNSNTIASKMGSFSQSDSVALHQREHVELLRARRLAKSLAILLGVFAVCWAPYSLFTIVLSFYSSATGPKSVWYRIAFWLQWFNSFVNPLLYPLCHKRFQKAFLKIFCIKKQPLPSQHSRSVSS

histamine H4 receptor [4] = target: T1, histamine H4 receptor (Homo sapiens, UniProt Q9H3N8); test: Affinity constants by competition with tritiated histamine on membrane preparations from CHO cells expressing H4 receptor; type: binding; set-up: expressed in transfected cells; host or cells: CHO; conditions: CHO cell membranes
T1 sequence (Q9H3N8 whole entry): as above
Source text: In a second series of experiments, the affinity constants of these three compounds are precisely determined by competition with the tritiated histamine radioligand on membrane preparations from CHO cells expressing in a stable manner histamine H4 receptor.

histamine H4 receptor [5] = target: T1, histamine H4 receptor; test: Receptor binding in vitro, HEK-293 cells stably transfected with human H4 receptor, 10 nM tritiated histamine; set-up: expressed in transfected cells; host or cells: HEK-293; conditions: for inhibition at 10 µM: compounds tested at 10 μM, 10 nM tritiated histamine, HEK-293 cells
Description: The goal of this study is to determine an affinity constant of the compound with respect to human histamine H4 receptor in vitro. The model chosen is HEK-293 cells transfected in a stable fashion by cDNA coding for human H4 receptor (Liu et al., 2001). First is determined the affinity of cells expressing each type of receptor for a ligand for which it was also established that it bound 100% to the receptor. The optimal ligand for the recombinant receptor is 10 nM tritiated histamine. Receptor binding is defined as follows: the difference between total binding and the nonspecific binding determined in the presence of excess cold ligand. The results are expressed as a percentage of optimal binding obtained with the ligand model (100%).

respiratory functions = test: Effects on respiratory functions after oral administration in male Wistar rats; type: in vivo, rat; conditions: for Pupil diameter: rat, in vivo
Description: The effects of […] (0.5, 50 and 100 mg/kg) on respiratory functions are analyzed after oral (per os) administration in male Wistar rats (8 rats/dose). […] (100 mg/kg) administered under the same conditions is used as a reference substance. Theophylline (100 mg/kg), administered under the same experimental conditions, is used as a reference substance. Carboxymethyl cellulose (0.5%) in distilled water is used as a control vehicle. At the end of the testing period (i.e., 360 minutes after administration of the dose), the behavior of the animals as well as the diameter of their pupils (miosis/mydriasis) are evaluated. Blood samples are taken from each rat (except those pertaining to the theophylline group) in order to analyze the concentration of the substance in the blood. […]

[6] = Transcutaneous passage through human skin explants in dynamic diffusion chamber; type: in vitro ADME
Source text: The importance of H4 receptor in pruritus was recently established. Thus, an antagonist targeting the histamine H4 receptors involved in dermatological pruritus can constitute a weapon of choice for breaking behaviors related to pruritus and, consequently, for avoiding superinfections generated by the skin lesions caused by pruritus. […] To this end, it is useful to have an H4 antihistamine likely to cross the cutaneous barrier in order to reach its target on subcutaneous mast cells. […] Human skin explants were placed in a dynamic diffusion chamber (diffusion area of 0.636 cm^2), with the dermis in contact with the receptor medium (water; 0.9% NaCl 0.9% NaN3 0.1%/ethanol; 75/25; v/v). The flow rate is 1.5 ml/h. The study is carried out at 32° C. The solution containing the compound (500 μl to 2.5 mg/ml, or 10 μCi per cell) is deposited at T=0. The study of transcutaneous passage is carried out under occlusion. The receiving liquid is sampled at 3, 6, 9, 12, 16, 20 and 24 hours.

Row | SMILES | Inhibition of inflammation (%) ([2]; pretreatment −30 min) | Inhibition of inflammation (%) ([2]; pretreatment −60 min) | Inhibition of inflammation (%) ([2]; pretreatment −90 min) | Inhibition of inflammation (%) ([2]; pretreatment −120 min) | Inhibition at 5 min (%) ([3]; 25 mg/kg i.v.) | Inhibition at 30 min (%) ([3]; 25 mg/kg i.v.) | Inhibition at 5 min (%) ([3]; 37.5 mg/kg i.v.) | Inhibition at 30 min (%) ([3]; 37.5 mg/kg i.v.) | Inhibition at 5 min (%) ([3]; 50 mg/kg i.v.) | Inhibition at 30 min (%) ([3]; 50 mg/kg i.v.) | Percentage of inhibition (%) ([1]; dose 25 μg/kg) | Percentage of inhibition (%) ([1]; dose 50 μg/kg) | Percentage of inhibition (%) ([1]; dose 100 μg/kg) | Effect on G protein activation induced by histamine (H4 receptor) | Functional character at H4 receptor (basal activity in the absence of agonist) (H4 receptor) | Ki (histamine H4 receptor [4]) | Binding to human histamine H4 receptors (in words) (histamine H4 receptor [5]) | inhibition at 10 µM (histamine H4 receptor [5]) | Anti-inflammatory activity, range over pretreatment times [2] | Inhibition at 5 min (%) ([3]; 12.5 mg/kg i.v.) | further results
1 | CN1[C@@H]2CC[C@H]1C[C@@H](OC(=O)C(CO)c1ccccc1)C2 (some centres unmarked) [Atropine, reference compound] | – | – | – | – | – | – | – | – | – | – | – | – | – | – | – | – | – | – | – | – | Percentage of inhibition (%) ([1]; dose 5 μg/kg): −76 ± 8%
2 | c1ccc2c(c1)Sc1ccccc1N2C[C@H]1CN2CCC1CC2 [V0162, 10-[(3R)-1-azabicyclo[2.2.2]oct-3-ylmethyl]-10H-phenothiazine] | +2% | +25% | −5% | +12% | −17 + 3% | −9 ± 8% | −23 + 4% | −9 ± 9% | −31 + 12% | −4 ± 10% | −9 ± 3% | −29 ± 4% | −37 ± 5% | antagonize the activating action | inverse agonists | 1180 ± 160 nM | strongly bind | 52% | – | – | Effect on histamine edema (in words) ([2]; oral route): does not reduce this edema
3 | c1ccc2c(c1)Sc1ccccc1N2C[C@@H]1CN2CCC1CC2 [V0114, 10-[(3S)-1-azabicyclo[2.2.2]oct-3-ylmethyl]-10H-phenothiazine] | −63% | −58% | −72% | −71% | −29 ± 3% | −71 + 5% | −51 ± 8% | −91 + 2% | −48 ± 6% | −97 + 2% | −7 ± 3% | −6 ± 1% | −14 ± 4% | antagonize the activating action | inverse agonists | 2490 ± 370 nM | strongly bind | 33% | −58% to −72% | −15 ± 3% | Inhibition at 30 min (%) ([3]; 12.5 mg/kg i.v.): −35 + 6%; Effect on the nine respiratory parameters evaluated (respiratory functions; 0.5, 50 and 100 mg/kg p.o., 360 minute test period): does not have a significant effect; Pupil diameter (respiratory functions; male, Wistar, 360 min): an increase of 50 mg/kg related to the administration was noted
4 | Cn1c(=O)c2[nH]cnc2n(C)c1=O [Theophylline, reference compound] | – | – | – | – | – | – | – | – | – | – | – | – | – | – | – | – | – | – | – | – | Change in peak flow of expiration (respiratory functions; 100 mg/kg p.o., at 60 minutes): +121%; Change in peak flow of inspiration (respiratory functions; 100 mg/kg p.o., at 60 minutes): +116%; Change in relaxation time (respiratory functions; 100 mg/kg p.o., at 60 minutes): −61%; Change in respiratory rate (respiratory functions; 100 mg/kg p.o., at 60 minutes): +223%; Change in time of expiration (respiratory functions; 100 mg/kg p.o., at 60 minutes): −63%; Change in time of inspiration (respiratory functions; 100 mg/kg p.o., at 60 minutes): −60%; Change in respiratory volume (respiratory functions; 100 mg/kg p.o., at 120 minutes): −17%; Change in 'improves respiratory pause' parameter (respiratory functions; 100 mg/kg p.o., at 300 minutes): −37%; Change in respiratory pause (respiratory functions; 100 mg/kg p.o., at 300 minutes): −20%; Behavior and signs of morbid state (respiratory functions; 360 minutes post-administration, V0114 0.5, 50 and 100 mg/kg, L0013 and theophylline 100 mg/kg): no change of behavior or signs of morbid state
5 | S=C(NC1CCCCC1)N1CCC(c2cnc[nH]2)CC1 [thioperamide, reference compound] | – | – | – | – | – | – | – | – | – | – | – | – | – | antagonize the activating action | inverse agonists | – | – | – | – | – | –
6 | c1ccc2c(c1)Sc1ccccc1N2CC1CN2CCC1CC2 (racemic) [L0013, 10-[(3R,3S)-1-azabicyclo[2.2.2]oct-3-ylmethyl]-10H-phenothiazine] | −54% | −65% | −82% | −80% | −35 ± 5% | −61 ± 5% | −26 ± 4% | −51 ± 8% | −37 ± 5% | −57 ± 7% | −8 ± 1% | −25 ± 2% | −24 ± 6% | antagonize the activating action | inverse agonists | 1630 ± 200 nM | strongly bind | – | −54% to −82% | −35 ± 6% | Inhibition at 30 min (%) ([3]; 12.5 mg/kg i.v.): −39 ± 7%; Accumulated quantity in receiving liquid (receptor zone) at 24 hours ([6]; 24 hours): 107 μg/cm^2 and 107±28 μg/cm^2; Nearly constant maximum flow ([6]; human, 2.5 mg/ml): 5.4 μg/cm^2/h; Time at which nearly constant maximum flow is reached ([6]; human, 2.5 mg/ml): 16 h; Amount of compound in dermis ([6]; human, 24 h, 2.5 mg/ml): 45±14 μg/cm^2; Amount of compound in epidermis ([6]; human, 24 h, 2.5 mg/ml): 56±17 μg/cm^2; Total amount of compound in skin (epidermis and dermis) ([6]; human, 24 h, 2.5 mg/ml): 101 μg/cm^2; Transcutaneous passage ([6]; human, 24 h, 2.5 mg/ml): approx. 100 μg/cm^2/24 h; Change in respiratory rate (respiratory functions; 100 mg/kg p.o., at 60 minutes): +80%; Change in respiratory volume (respiratory functions; 100 mg/kg p.o., at 60 minutes): −26%; Change in relaxation time (respiratory functions; 100 mg/kg p.o., at 120 minutes): −30%; Pupil diameter (respiratory functions): appreciable increase
